Consider 17 compounds from patent US20050181485A1, “Cellulose digesting enzyme gene and utilization of the gene” (priority 2002, published 2005).

This assay deals with cellobiose dehydrogenase. Type of assay: biochemical, Coriolus hirsutus.
The mark [1] stands for this setting: 1 mM, incubation at 4° C. overnight.

Like-named read-outs stand apart in the source and are kept apart here.

`O=S(=O)([O-])[O-].[Fe+2]` [FeSO4] yielded a Relative activity under setting [1] of 0%.
As to `[N-]=[N+]=[N-].[Na+]` [NaN3, sodium azide], the Relative activity is recorded as 46% and the “inhibition of the enzyme” value is recorded as “weakly inhibited”.
Compound `[Ba+2].[Cl-].[Cl-]` [BaCl2] had a Relative activity under setting [1] of 71%.
Consider `[Cl][Hg][Cl]` [HgCl2], for which the “inhibition of the enzyme” value (1 mM) is reported as “strongly inhibited”. Under setting [1], this compound returned a Relative activity of 0%.
The like results for `CCCCCCCCCCCCOS(=O)(=O)[O-].[Na+]` [SDS] were, in that order, “strongly inhibited” and 0%.
Turning to `O=S(=O)([O-])[O-].[Cu+2]` [CuSO4], the Relative activity under setting [1] is reported as 82%.
Under setting [1], `[Cl][Mn][Cl]` [MnCl2] yielded a Relative activity of 35%.
With `O=C(O)CN(CCN(CC(=O)O)CC(=O)O)CC(=O)O` [EDTA], the Relative activity came out at 45% and the “inhibition of the enzyme” value is listed as “weakly inhibited”.
`[Cl][Cu][Cl]` [CuCl2] returned a Relative activity under setting [1] of 53%.
With `O=S(=O)([O-])[O-].[Zn+2]` [ZnSO4], under setting [1], the Relative activity is recorded as 72%.
The same measure, in the same setting: to `[Ca+2].[Cl-].[Cl-]` [CaCl2] belongs 65%.
Regarding `[Cl-].[Cl-].[Co+2]` [CoCl2], the Relative activity (1 mM) amounted to 53%.
The compound `[Cl][Ni][Cl]` [NiCl2] gave a Relative activity under setting [1] of 60%.
Still for that read-out and setting: to `[Cl-].[Li+]` [LiCl2] belongs 45%; to `[Cl-].[Cl-].[Mg+2]` [MgCl2], 64%; to `[Cl][Al]([Cl])[Cl]` [AlCl2], 23%.
Regarding `[Cl-].[Cl-].[Zn+2]` [ZnCl2], the Relative activity under setting [1] was 32%.
